In publication PMC7024302, “Ultrashort Cationic Lipopeptides–Effect of N-Terminal Amino Acid and Fatty Acid Type on Antimicrobial Activity and Hemolysis” (Molecules, 2020):
≈ marks a conversion by molar mass, not a printed value. Residues, ends and D or L forms follow the SMILES beside them.

What was measured:
[1] = Determination of peptide hydrophobicity with RP-HPLC (adjusted retention time); format: physicochemical; details: for tR’: Table 3, adjusted retention time as hydrophobicity; for tR’ / Adjusted retention time: RP-HPLC C18, linear 10–55% acetonitrile over 60 min; for tR’ / tR’ (adjusted retention time) / Adjusted retention time: 0.1% TFA, 25.0 °C, UV 214 nm, triplicate; for tR’ (adjusted retention time): Table 1 and b9, measure of hydrophobicity, RP-HPLC, Phenomenex Luna C18(2) 3.0 × 100 mm, 5 µm, linear 10–55% acetonitrile in water over 60 min, 0.5 mL/min, peptide 1 g/L; for Adjusted retention time: Table 2, nC = carbon atoms in fatty acid chain; for ∆tR: tR’ of the lipopeptide minus tR’ of C10-RR-NH2 or C12-RR-NH2, same RP-HPLC conditions
Procedure: To determine peptide hydrophobicity, the Waters Alliance e2695 system with a Waters 2998 PDA Detector (software-Empower®3) was used. All analyses were carried out on a Phenomenex Luna C18(2) column (3.0 × 100 mm, 5 µm particle size, 100 Å pore size). The peptides were dissolved in water (0.1% TFA, v/v) to obtain a concentration of 1 g/L. UV detection at 214 nm was used, and aliquots (10 µL) were eluted with a linear 10–55% acetonitrile gradient in deionized water over 60 min at 25.0 ± 0.1 °C. The mobile phase flow rate was 0.5 mL/min. Both eluents contained 0.1% (v/v) of TFA. Each peptide sample was analyzed in triplicate.

K. aerogenes ATCC 13048 = format: cell-based, Klebsiella aerogenes; details: ATCC 13048, 18 h
Text: (§1) The Acinetobacter baumannii ATCC BAA-1605, Candida albicans ATCC 10231, Enterococcus faecium ATCC 700221, Klebsiella aerogenes ATCC 13048 (previously known as Enterobacter aerogenes), Klebsiella pneumoniae ATCC 700603, Pseudomonas aeruginosa ATCC 9027, Staphylococcus aureus ATCC 25923 and MRSA ATCC 33591, were acquired from the American Type Culture Collection (ATCC). Before running the tests, beads with cryo-protected microorganisms were transferred into fresh MHB (BioMaxima, Lublin, Poland) for bacteria or RPMI-1640 for fungi and incubated for 24 h at 37 °C. Then, the culture was seeded on the Mueller-Hinton agar (MHA) plates (BioMaxima, Lublin, Poland) for bacteria or Sabouraud dextrose agar (SDA) plates (BioMaxima, Lublin, Poland) for fungi and incubated as just mentioned. Cell densities for all assays were adjusted spectrophotometrically (Multiskan™ GO Microplate Spectrophotometer, Thermo Fisher Scientific, Vantaa, Finland) at 600 nm for bacteria and at 530 nm for fungi.
(§2) The MICs were determined by broth microdilution method according to the Clinical and Laboratory Standard Institute guidelines. For this purpose initial inoculums of bacteria (5 × 10^5 CFU/mL) in MHB (BioMaxima, Lublin, Poland) and fungi (2 × 10^3 CFU/mL) in RPMI-1640 with 2% D-glucose (Merck, Darmstadt, Germany) prepared with MOPS (pH 7.0 ± 0.1 at 25 °C; Merck, Darmstadt, Germany) were exposed to the ranging concentration of lipopeptides (0.5–256 µg/mL) and incubated at 37 °C for 18 h and 24 h respectively. The experiments were conducted on 96-well microtiter polystyrene plates (Kartell, Italy). The MIC was taken as the lowest peptide concentration at which a noticeable growth of microorganisms was inhibited. All experiments were conducted in triplicate.

P. aeruginosa ATCC 9027 = format: cell-based, Pseudomonas aeruginosa; details: ATCC 9027, 18 h
Text: as §1, §2

[2] = system: S. aureus ATCC 33591 (MRSA); format: cell-based, Staphylococcus aureus; details: ATCC 33591, 18 h
Text: as §1, §2

S. aureus ATCC 25923 = format: cell-based, Staphylococcus aureus; details: ATCC 25923, 18 h
Text: as §1, §2

C. albicans ATCC 10231 = format: cell-based, Candida albicans; details: ATCC 10231, 24 h, pH 7
Text: as §1, §2

[3] = system: K. pneumoniae ATCC 700603; format: cell-based, Klebsiella pneumoniae; details: ATCC 700603, 18 h
Text: as §1, §2

E. faecium ATCC 700221 = format: cell-based, Enterococcus faecium; details: ATCC 700221, 18 h
Text: as §1, §2

[4] = system: human red blood cells (hRBCs); format: cell-based; details: red cells of human, 1 h
Procedure: The hemolysis assay was performed as described earlier according to the method of Avrahami and Shai. Fresh human red blood cells (hRBCs) with anticoagulant (EDTA) were rinsed three times with a PBS (Merck, Darmstadt, Germany) by centrifugation at 800× g for 10 min and resuspended in PBS. Lipopeptides were serially diluted on 96-well microtiter polystyrene plate and hRBCs were added to reach final volume of 100 µL. Peptide concentration ranged between 0.5 and 256 µg/mL and final hRBCs concentration was 4% (v/v). Controls for zero hemolysis (blank) and 100% hemolysis consisted of hRBCs suspended in PBS and 1% of Triton-X 100 (Merck, Darmstadt, Germany), respectively. The plate was incubated for 1 h at 37 °C and then centrifuged (800× g, 10 min, 4 °C). Subsequently, supernatant was […] to new microtiter plates and absorbance at 540 nm were measured. All experiments were conducted in triplicate. Protocol of the study received approval from the local Bioethics Committee at the Medical University of Gdańsk (NKBBN/262/2019).

[5] = system: A. baumannii ATCC BAA-1605; format: cell-based, Acinetobacter baumannii; details: ATCC BAA-1605, 18 h
Text: as §1, §2

| SMILES | tR’ [1] | MIC PA (P. aeruginosa ATCC 9027) | MIC SA (S. aureus ATCC 25923) | MIC CA (C. albicans ATCC 10231) | HC50 [4] | tR’ (adjusted retention time) [1] | also measured |
| --- | --- | --- | --- | --- | --- | --- | --- |
| CCCCCCCCCCCCCC(=O)N[C@@H](CCSC)C(=O)N[C@@H](CCCNC(=N)N)C(=O)N[C@@H](CCCNC(=N)N)C(N)=O [compound 50, C14-MRR-NH2] (HELM PEPTIDE1{[CCCCCCCCCCCCCC(=O)[*:2]].M.R.R.[am]}$$$$V2.0) | 44.69 min | 8 µg/mL (≈ 11.9 µM) | 4 µg/mL (≈ 5.96 µM) | 4 µg/mL (≈ 5.96 µM) | 35.11 (±0.90) µg/mL | – | MIC E2 (K. aerogenes ATCC 13048): 128 µg/mL (≈ 191 µM); MIC S [2]: 8 µg/mL (≈ 11.9 µM); MIC K [3]: 128 µg/mL (≈ 191 µM); MIC E1 (E. faecium ATCC 700221): 8 µg/mL (≈ 11.9 µM); MIC A [5]: 32 µg/mL (≈ 47.7 µM) |
| CCCCCCCCCCCC(=O)N[C@H](C(=O)N[C@@H](CCCNC(=N)N)C(=O)N[C@@H](CCCNC(=N)N)C(N)=O)[C@@H](C)O [compound 89, C12-TRR-NH2] (HELM PEPTIDE1{[CCCCCCCCCCCC(=O)[*:2]].T.R.R.[am]}$$$$V2.0) | 33.82 min | 128 µg/mL (≈ 209 µM) | 32 µg/mL (≈ 52.2 µM) | 64 µg/mL (≈ 104 µM) | >256 µg/mL | – | – |
| CCCCCCCCCC(=O)N[C@@H](CCCNC(=N)N)C(=O)N[C@@H](CCCNC(=N)N)C(N)=O [compound 2, C10-RR-NH2, reference compound] (HELM PEPTIDE1{[CCCCCCCCCC(=O)[*:2]].R.R.[am]}$$$$V2.0) | 24.30 min | – | – | – | – | 24.30 min | – |
| CCCCCCCC(=O)N[C@@H](CCCC)C(=O)N[C@@H](CCCNC(=N)N)C(=O)N[C@@H](CCCNC(=N)N)C(N)=O [compound 63, C8-NleRR-NH2] (HELM PEPTIDE1{[CCCCCCCC(=O)[*:2]].[Nle].R.R.[am]}$$$$V2.0) | – | – | – | – | – | – | Adjusted retention time [1]: 25.429 min |
| CCCCCCCCCCCC(=O)NCC(=O)N[C@@H](CCCNC(=N)N)C(=O)N[C@@H](CCCNC(=N)N)C(N)=O [compound 29, C12-GRR-NH2] | 33.20 min | 128 µg/mL (≈ 225 µM) | 32 µg/mL (≈ 56.3 µM) | 64 µg/mL (≈ 113 µM) | >256 µg/mL | – | – |
| CCCCCCCCCCCC(=O)N[C@@H](CCCNC(=N)N)C(=O)N[C@@H](CCCNC(=N)N)C(=O)N[C@@H](Cc1ccccc1)C(N)=O [compound 109, C12-RRF-NH2] (HELM PEPTIDE1{[CCCCCCCCCCCC(=O)[*:2]].R.R.F.[am]}$$$$V2.0) | – | – | – | – | – | 38.02 min | ∆tR [1]: 5.44 min |
| CCCCCCCCC(CCCCCC)C(=O)N[C@@H](CCCNC(=N)N)C(=O)N[C@@H](CCCNC(=N)N)C(N)=O (stereo partly shown) [compound 105, C10(6)-RR-NH2] | – | 8 µg/mL (≈ 14.1 µM) | 4 µg/mL (≈ 7.04 µM) | 16 µg/mL (≈ 28.2 µM) | 200.25 (±16.07) µg/mL | – | MIC E2 (K. aerogenes ATCC 13048): >256 (-) µg/mL; MIC S [2]: 4 µg/mL (≈ 7.04 µM); MIC K [3]: >256 (-) µg/mL; MIC E1 (E. faecium ATCC 700221): 8 µg/mL (≈ 14.1 µM); MIC A [5]: 256 µg/mL (≈ 451 µM) |
| CCCCCCCC(=O)N[C@@H](CCCNC(=N)N)C(=O)N[C@@H](CCCNC(=N)N)C(N)=O [compound 1, C8-RR-NH2, reference compound] (HELM PEPTIDE1{[CCCCCCCC(=O)[*:2]].R.R.[am]}$$$$V2.0) | 14.46 min | – | – | – | – | – | – |
| CCCCCCCCCCCC(=O)N[C@@H](CCCNC(=N)N)C(=O)N[C@@H](Cc1ccccc1)C(=O)N[C@@H](CCCNC(=N)N)C(N)=O [compound 107, C12-RFR-NH2] (HELM PEPTIDE1{[CCCCCCCCCCCC(=O)[*:2]].R.F.R.[am]}$$$$V2.0) | – | – | – | – | – | 38.67 min | ∆tR [1]: 6.09 min |
| CCCCCCCCCC(=O)N[C@@H](CCCNC(=N)N)C(=O)N[C@@H](CCCNC(=N)N)C(=O)N[C@@H](Cc1ccccc1)C(N)=O [compound 108, C10-RRF-NH2] (HELM PEPTIDE1{[CCCCCCCCCC(=O)[*:2]].R.R.F.[am]}$$$$V2.0) | – | – | – | – | – | 31.07 min | ∆tR [1]: 6.77 min |
| CCCCCCCCCC(=O)N[C@@H](CCCC)C(=O)N[C@@H](CCCNC(=N)N)C(=O)N[C@@H](CCCNC(=N)N)C(N)=O [compound 64, C10-NleRR-NH2] (HELM PEPTIDE1{[CCCCCCCCCC(=O)[*:2]].[Nle].R.R.[am]}$$$$V2.0) | – | 64 µg/mL (≈ 107 µM) | 32 µg/mL (≈ 53.6 µM) | 64 µg/mL (≈ 107 µM) | >256 µg/mL | – | Adjusted retention time [1]: 33.155 min |
| CCCCCCCCCCCCCC(=O)N[C@@H](CCC(=O)O)C(=O)N[C@@H](CCCNC(=N)N)C(=O)N[C@@H](CCCNC(=N)N)C(N)=O [compound 22, C14-ERR-NH2] (HELM PEPTIDE1{[CCCCCCCCCCCCCC(=O)[*:2]].E.R.R.[am]}$$$$V2.0) | 40.17 min | 128 µg/mL (≈ 191 µM) | 64 µg/mL (≈ 95.7 µM) | 32 µg/mL (≈ 47.8 µM) | 59.51 (±4.00) µg/mL | – | – |
| CCCCCCCCCC(=O)N[C@@H](CCCNC(=N)N)C(=O)N[C@@H](Cc1ccccc1)C(=O)N[C@@H](CCCNC(=N)N)C(N)=O [compound 106, C10-RFR-NH2] (HELM PEPTIDE1{[CCCCCCCCCC(=O)[*:2]].R.F.R.[am]}$$$$V2.0) | – | – | – | – | – | 31.44 min | ∆tR [1]: 7.14 min |
| CCCCCCCCCCCC(=O)N1CCC[C@H]1C(=O)N[C@@H](CCCNC(=N)N)C(=O)N[C@@H](CCCNC(=N)N)C(N)=O [compound 73, C12-PRR-NH2] | 35.82 min | 64 µg/mL (≈ 105 µM) | 32 µg/mL (≈ 52.6 µM) | 64 µg/mL (≈ 105 µM) | >256 µg/mL | – | – |
| CCCCCCCCCCCCCC(=O)N[C@@H](CC(=O)O)C(=O)N[C@@H](CCCNC(=N)N)C(=O)N[C@@H](CCCNC(=N)N)C(N)=O [compound 18, C14-DRR-NH2] (HELM PEPTIDE1{[CCCCCCCCCCCCCC(=O)[*:2]].D.R.R.[am]}$$$$V2.0) | 40.25 min | 128 µg/mL (≈ 195 µM) | 64 µg/mL (≈ 97.7 µM) | 32 µg/mL (≈ 48.9 µM) | 49.95 (±1.00) µg/mL | – | – |
